Measured values taken from PubChem BioAssay (NCI).
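Five compound concentrations were applied to cells in 96-well plates for 48 hours; endpoints were derived by simple linear interpolation of the resulting dose-response curve. At the GI50, growth is halved. TGI denotes the concentration required for complete inhibition of growth.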

Tests used:
Assay in all cases: growth of human tumour cells (NCI), 48 h
[1] = test system: CCRF-CEM leukemia
[2] = test system: M14 melanoma
[3] = test system: OVCAR-3 ovarian
[4] = test system: HOP-92 NSCLC
[5] = test system: MALME-3M melanoma
[6] = test system: HT29 colon
[7] = test system: SF-295 CNS
[8] = test system: RXF 393 renal
[9] = test system: SNB-19 CNS
[10] = test system: SW-620 colon

Row | Compound | GI50 [1] [nM] | TGI [1] [µM] | GI50 [2] [nM] | TGI [2] [µM] | GI50 [3] [nM] | TGI [3] [µM] | GI50 [4] [nM] | TGI [4] [µM] | GI50 [5] [nM] | TGI [5] [µM] | GI50 [6] [nM] | TGI [6] [µM] | GI50 [7] [nM] | TGI [7] [µM] | GI50 [8] [nM] | TGI [8] [µM] | GI50 [9] [nM] | TGI [9] [µM] | GI50 [10] [nM] | TGI [10] [µM]
1 | COc1ccccc1/C=C/C(=O)c1c(O)cc2occc2c1OC | 9720 | > 100 | > 100000 | > 100 | 47400 | > 100 | 2980 | 26.6 | 18900 | 80.6 | > 100000 | > 100 | 16600 | 55.6 | 14900 | 42.6 | 30800 | > 100 | > 100000 | > 100
2 | CCNCCC1(CC)C(=O)NC(=O)NC1=O | > 100000 | > 100 | – | > 100 | – | > 100 | – | > 100 | – | > 100 | – | > 100 | – | > 100 | – | > 100 | – | > 100 | – | > 100
3 | NC(=NCCCC1(c2ccccc2)CCCC1)Nc1ccc(Cl)cc1 | 2180 | 6.29 | 1590 | 3.27 | 1820 | 3.35 | 1360 | 2.85 | 1690 | 3.66 | 1720 | 3.17 | 1620 | 3.06 | 1470 | 2.88 | 1810 | 3.98 | 1850 | 3.85
4 | Cc1ccc2c(c1)C(C)Cc1c(ncnc1-n1cnc3cc(C)ccc31)N2C (stereo not drawn) | 36.2 | 17.6 | – | – | – | – | 301 | 5.21 | 11000 | 23.7 | 30.2 | 0.195 | – | – | 28.9 | 8.74 | 52.2 | 21.9 | 41.7 | 15.9
5 | O=C1/C=C/[C@@H](O)[C@@H]2C[C@@H](O)C[C@H]2/C=C/CCC[C@H](CCc2ccc(C(F)(F)F)cc2)O1 | 314 | 49 | 247 | 11.9 | 264 | 0.69 | 227 | 0.89 | 364 | 2.88 | 127 | 2.1 | 188 | 47.8 | 126 | 0.669 | 383 | > 100 | 297 | 1.27
6 | CCC(=O)C1(c2ccccc2)CCN(C)CC1 | – | > 100 | – | > 100 | – | – | – | > 100 | – | > 100 | – | > 100 | – | > 100 | – | > 100 | – | > 100 | – | > 100
7 | CCN(CC)CC.CCOc1ccc(NC(=O)N=C=[N-])cc1.[CH-]1CCCCC1.[CH-]1CCCCC1.[CH-]1CCCCC1.[Cl-].[Sn+4] | < 16.2 | 0.515 | 26.4 | 0.0727 | 17.1 | 0.038 | 26.4 | 0.111 | 45.2 | 0.119 | 22 | 0.0467 | 52.1 | 0.149 | 14.6 | 0.0336 | 58.6 | 0.122 | 16.9 | 0.0326
8 | C=CCCCn1ccc2ccccc21 | – | > 100 | – | > 100 | – | > 100 | – | > 100 | – | > 100 | – | > 100 | – | > 100 | – | > 100 | – | > 100 | – | > 100
9 | C=CC(=O)N1C/C(=C\c2ccccc2)C(=O)/C(=C/c2ccccc2)C1 | 927 | 3.55 | – | 4.58 | – | 4.47 | – | 8.64 | – | 4.87 | 528 | 2.87 | – | 5.07 | – | 4.43 | – | 7.12 | 534 | 0.831
10 | C#Cc1c(C)c(/C=C/C(C)=C/C=C/C(C)=C/C(=O)OC)n(C)c1C | – | > 100 | – | > 100 | – | > 100 | – | > 100 | – | > 100 | – | > 100 | – | > 100 | – | – | – | > 100 | – | > 100
11 | CC(C)CC1C(=O)N2CCC[C@H]2C2(O)O[C@](NC(=O)C3C=C4c5cccc6[nH]c(Br)c(c56)C[C@H]4N(C)C3)(C(C)C)C(=O)N12 (stereo partly drawn) | 8530 | > 100 | > 100000 | > 100 | 6700 | > 100 | 1910 | > 100 | > 100000 | > 100 | – | > 100 | 5300 | > 100 | 4870 | > 100 | – | > 100 | 9230 | > 100
12 | COc1cc2c(F)nccc2cc1C(=O)N[C@@H](c1ccc(F)c(Cl)c1)[C@@H]1C[C@@H](O)CN1 | 299 | > 42 | 10500 | 23.2 | 8430 | 24.7 | 291 | 7.83 | 716 | 15.4 | 2350 | 19.6 | 131 | 13.2 | 36.2 | 0.268 | 847 | 18.5 | 6390 | 23.6
13 | COC(=O)[C@H]1C(=O)[C@@]2(C)[C@H]([C@H](OC(=O)c3ccccc3)[C@]3(O)C[C@H](OC(=O)[C@H](O)[C@@H](NC(=O)c4ccc(F)cc4)c4ccccc4)C(C)=C1C3(C)C)[C@]1(OC(C)=O)CO[C@@H]1C[C@@H]2O | 6.85 | > 8.69 | 11.4 | 0.105 | 7.22 | 0.0222 | – | > 14.5 | 18.7 | > 25 | 3.78 | > 25 | 9.19 | 0.0639 | 15.2 | > 25 | 16.6 | > 25 | 8.21 | > 25
14 | CCCCCCCCCCCCCCCCOCC(CN(C)CCN(C)C)OCCCCCCCCCCCCCCCC (stereo not drawn) | – | > 100 | – | > 100 | – | > 100 | – | > 100 | – | > 100 | – | > 100 | – | > 100 | – | > 100 | – | > 100 | – | > 100
